# Laboratory results reported in ChEMBL document CHEMBL4699602, “Stapled and Xenopus Glucagon-Like Peptide 1 (GLP-1)-Based Dual GLP-1/Gastrin Receptor Agonists with Improved Metabolic Benefits in Rodent Models of Obesity and Diabetes” (J Med Chem, 2020).
# Where a SMILES comes first, the peptide text is derived from it.
# Molecular target: Glucagon-like peptide 1 receptor (Homo sapiens, UniProt P43220)
# Test: Agonist activity at human GLP-1R expressed in HEK293 cells assessed as stimulation of cAMP accumulation incubated for 20 mins
# Format: functional, cell-based
# Sequence of Glucagon-like peptide 1 receptor (P43220 whole entry): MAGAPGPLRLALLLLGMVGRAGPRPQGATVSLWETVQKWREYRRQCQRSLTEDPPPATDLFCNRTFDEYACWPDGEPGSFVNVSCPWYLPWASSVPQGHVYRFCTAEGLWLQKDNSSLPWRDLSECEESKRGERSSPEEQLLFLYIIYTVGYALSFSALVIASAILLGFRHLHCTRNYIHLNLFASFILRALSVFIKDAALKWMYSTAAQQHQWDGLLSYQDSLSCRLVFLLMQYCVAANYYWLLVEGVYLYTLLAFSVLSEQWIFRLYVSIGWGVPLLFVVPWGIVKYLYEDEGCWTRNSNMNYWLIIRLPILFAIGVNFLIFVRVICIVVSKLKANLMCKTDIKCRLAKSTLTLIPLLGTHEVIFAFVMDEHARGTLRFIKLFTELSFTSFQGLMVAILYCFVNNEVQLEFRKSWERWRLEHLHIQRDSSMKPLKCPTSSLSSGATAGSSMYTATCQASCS
row,SMILES,EC50 [nM]
1,CC[C@H](C)[C@H](NC(=O)[C@H](CC(C)C)NC(=O)[C@H](Cc1c[nH]c2ccccc12)NC(=O)[C@H](CCC(=O)O)NC(=O)[C@H](CS)NC(=O)[C@H](Cc1ccccc1)NC(=O)[C@H](CCC(=O)O)NC(=O)[C@H](CCCCN)NC(=O)[C@H](C)NC(=O)[C@H](C)NC(=O)[C@H](CCC(=O)O)NC(=O)[C@H](CS)NC(=O)[C@H](CCC(=O)O)NC(=O)[C@H](CC(C)C)NC(=O)[C@H](Cc1ccc(O)cc1)NC(=O)[C@H](CCC(=O)O)NC(=O)[C@@H](NC(=O)[C@@H](NC(=O)[C@H](CC(=O)O)NC(=O)[C@H](CC(N)=O)NC(=O)[C@@H](NC(=O)[C@H](Cc1ccc(O)cc1)NC(=O)[C@@H](NC(=O)CNC(=O)[C@H](CCC(=O)O)NC(=O)C(C)(C)NC(=O)[C@@H](N)Cc1c[nH]cn1)[C@@H](C)O)[C@@H](C)O)C(C)C)[C@@H](C)O)C(=O)N[C@@H](CCCCN)C(=O)NCC(=O)N[C@@H](CCCCN)C(=O)N1CCC[C@H]1C(=O)N[C@@H](CO)C(=O)N[C@@H](CO)C(=O)NCC(=O)N[C@@H](C)C(=O)N1CCC[C@H]1C(=O)N1CCC[C@H]1C(=O)N1CCC[C@H]1C(=O)N[C@@H](CO)C(N)=O (HELM PEPTIDE1{H.[Aib].E.G.T.Y.T.N.D.V.T.E.Y.L.E.C.E.A.A.K.E.F.C.E.W.L.I.K.G.K.P.S.S.G.A.P.P.P.S.[am]}$$$$V2.0),0.28
2,CC[C@H](C)[C@H](NC(=O)[C@H](CC(C)C)NC(=O)[C@H](Cc1c[nH]c2ccccc12)NC(=O)[C@H](CCC(=O)O)NC(=O)[C@H](CS)NC(=O)[C@H](Cc1ccccc1)NC(=O)[C@H](CCC(=O)O)NC(=O)[C@H](CCCCN)NC(=O)[C@H](C)NC(=O)[C@H](C)NC(=O)[C@H](CCC(=O)O)NC(=O)[C@H](CS)NC(=O)[C@H](CCC(=O)O)NC(=O)[C@H](CC(C)C)NC(=O)[C@H](Cc1ccc(O)cc1)NC(=O)[C@H](CCC(=O)O)NC(=O)[C@@H](NC(=O)[C@@H](NC(=O)[C@H](CC(=O)O)NC(=O)[C@H](CC(N)=O)NC(=O)[C@@H](NC(=O)[C@H](Cc1ccc(O)cc1)NC(=O)[C@@H](NC(=O)CNC(=O)[C@H](CCC(=O)O)NC(=O)C(C)(C)NC(=O)[C@@H](N)Cc1c[nH]cn1)[C@@H](C)O)[C@@H](C)O)C(C)C)[C@@H](C)O)C(=O)N[C@@H](CCCCN)C(=O)NCC(=O)N[C@@H](CCCCN)C(N)=O (HELM PEPTIDE1{H.[Aib].E.G.T.Y.T.N.D.V.T.E.Y.L.E.C.E.A.A.K.E.F.C.E.W.L.I.K.G.K.[am]}$$$$V2.0),0.73
3,CC[C@H](C)[C@H](NC(=O)[C@H](CC(C)C)NC(=O)[C@H](Cc1c[nH]c2ccccc12)NC(=O)[C@H](CS)NC(=O)[C@@H](NC(=O)[C@H](Cc1ccccc1)NC(=O)[C@H](CCC(=O)O)NC(=O)[C@H](CCCCN)NC(=O)[C@H](C)NC(=O)[C@H](C)NC(=O)[C@H](CS)NC(=O)[C@H](CCC(=O)O)NC(=O)[C@H](CCC(=O)O)NC(=O)[C@H](CC(C)C)NC(=O)[C@H](Cc1ccc(O)cc1)NC(=O)[C@H](CCC(=O)O)NC(=O)[C@@H](NC(=O)[C@@H](NC(=O)[C@H](CC(=O)O)NC(=O)[C@H](CC(N)=O)NC(=O)[C@@H](NC(=O)[C@H](Cc1ccc(O)cc1)NC(=O)[C@@H](NC(=O)CNC(=O)[C@H](CCC(=O)O)NC(=O)C(C)(C)NC(=O)[C@@H](N)Cc1c[nH]cn1)[C@@H](C)O)[C@@H](C)O)C(C)C)[C@@H](C)O)[C@@H](C)CC)C(=O)N[C@@H](CCCCN)C(=O)NCC(=O)N[C@@H](CCCCN)C(=O)N1CCC[C@H]1C(=O)N[C@@H](CO)C(=O)N[C@@H](CO)C(=O)NCC(=O)N[C@@H](C)C(=O)N1CCC[C@H]1C(=O)N1CCC[C@H]1C(=O)N1CCC[C@H]1C(=O)N[C@@H](CO)C(N)=O (HELM PEPTIDE1{H.[Aib].E.G.T.Y.T.N.D.V.T.E.Y.L.E.E.C.A.A.K.E.F.I.C.W.L.I.K.G.K.P.S.S.G.A.P.P.P.S.[am]}$$$$V2.0),0.089
4,CC[C@H](C)[C@H](NC(=O)[C@H](CC(C)C)NC(=O)[C@H](Cc1c[nH]c2ccccc12)NC(=O)[C@H](CS)NC(=O)[C@@H](NC(=O)[C@H](Cc1ccccc1)NC(=O)[C@H](CCC(=O)O)NC(=O)[C@H](CCCCN)NC(=O)[C@H](C)NC(=O)[C@H](C)NC(=O)[C@H](CS)NC(=O)[C@H](CCC(=O)O)NC(=O)[C@H](CCC(=O)O)NC(=O)[C@H](CC(C)C)NC(=O)[C@H](Cc1ccc(O)cc1)NC(=O)[C@H](CCC(=O)O)NC(=O)[C@@H](NC(=O)[C@@H](NC(=O)[C@H](CC(=O)O)NC(=O)[C@H](CC(N)=O)NC(=O)[C@@H](NC(=O)[C@H](Cc1ccc(O)cc1)NC(=O)[C@@H](NC(=O)CNC(=O)[C@H](CCC(=O)O)NC(=O)C(C)(C)NC(=O)[C@@H](N)Cc1c[nH]cn1)[C@@H](C)O)[C@@H](C)O)C(C)C)[C@@H](C)O)[C@@H](C)CC)C(=O)N[C@@H](CCCCN)C(=O)NCC(=O)N[C@@H](CCCCN)C(N)=O (HELM PEPTIDE1{H.[Aib].E.G.T.Y.T.N.D.V.T.E.Y.L.E.E.C.A.A.K.E.F.I.C.W.L.I.K.G.K.[am]}$$$$V2.0),0.16
5,CC[C@H](C)[C@H](NC(=O)[C@H](Cc1ccccc1)NC(=O)[C@H](CCC(=O)O)NC(=O)[C@H](CS)NC(=O)[C@H](C)NC(=O)[C@H](C)NC(=O)[C@H](CCC(=O)O)NC(=O)[C@H](CCC(=O)O)NC(=O)[C@H](CCC(=O)O)NC(=O)[C@H](CC(C)C)NC(=O)[C@H](Cc1ccc(O)cc1)NC(=O)[C@H](CCC(=O)O)NC(=O)[C@@H](NC(=O)[C@@H](NC(=O)[C@H](CC(=O)O)NC(=O)[C@H](CC(N)=O)NC(=O)[C@@H](NC(=O)[C@H](Cc1ccc(O)cc1)NC(=O)[C@@H](NC(=O)CNC(=O)[C@H](CCC(=O)O)NC(=O)C(C)(C)NC(=O)[C@@H](N)Cc1c[nH]cn1)[C@@H](C)O)[C@@H](C)O)C(C)C)[C@@H](C)O)C(=O)N[C@@H](CCC(=O)O)C(=O)N[C@@H](Cc1c[nH]c2ccccc12)C(=O)N[C@@H](CC(C)C)C(=O)N[C@@H](CS)C(=O)N[C@@H](CCCCN)C(=O)NCC(=O)N[C@@H](CCCCN)C(=O)N1CCC[C@H]1C(=O)N[C@@H](CO)C(=O)N[C@@H](CO)C(=O)NCC(=O)N[C@@H](C)C(=O)N1CCC[C@H]1C(=O)N1CCC[C@H]1C(=O)N1CCC[C@H]1C(=O)N[C@@H](CO)C(N)=O (HELM PEPTIDE1{H.[Aib].E.G.T.Y.T.N.D.V.T.E.Y.L.E.E.E.A.A.C.E.F.I.E.W.L.C.K.G.K.P.S.S.G.A.P.P.P.S.[am]}$$$$V2.0),0.26
6,CC[C@H](C)[C@H](NC(=O)[C@H](Cc1ccccc1)NC(=O)[C@H](CCC(=O)O)NC(=O)[C@H](CS)NC(=O)[C@H](C)NC(=O)[C@H](C)NC(=O)[C@H](CCC(=O)O)NC(=O)[C@H](CCC(=O)O)NC(=O)[C@H](CCC(=O)O)NC(=O)[C@H](CC(C)C)NC(=O)[C@H](Cc1ccc(O)cc1)NC(=O)[C@H](CCC(=O)O)NC(=O)[C@@H](NC(=O)[C@@H](NC(=O)[C@H](CC(=O)O)NC(=O)[C@H](CC(N)=O)NC(=O)[C@@H](NC(=O)[C@H](Cc1ccc(O)cc1)NC(=O)[C@@H](NC(=O)CNC(=O)[C@H](CCC(=O)O)NC(=O)C(C)(C)NC(=O)[C@@H](N)Cc1c[nH]cn1)[C@@H](C)O)[C@@H](C)O)C(C)C)[C@@H](C)O)C(=O)N[C@@H](CCC(=O)O)C(=O)N[C@@H](Cc1c[nH]c2ccccc12)C(=O)N[C@@H](CC(C)C)C(=O)N[C@@H](CS)C(=O)N[C@@H](CCCCN)C(=O)NCC(=O)N[C@@H](CCCCN)C(N)=O (HELM PEPTIDE1{H.[Aib].E.G.T.Y.T.N.D.V.T.E.Y.L.E.E.E.A.A.C.E.F.I.E.W.L.C.K.G.K.[am]}$$$$V2.0),0.76
7,CC[C@H](C)[C@H](NC(=O)[C@H](CS)NC(=O)[C@H](CCC(=O)O)NC(=O)[C@H](CCCCN)NC(=O)[C@H](C)NC(=O)[C@H](C)NC(=O)[C@H](CCC(=O)O)NC(=O)[C@H](CCC(=O)O)NC(=O)[C@H](CCC(=O)O)NC(=O)[C@H](CC(C)C)NC(=O)[C@H](Cc1ccc(O)cc1)NC(=O)[C@H](CCC(=O)O)NC(=O)[C@@H](NC(=O)[C@@H](NC(=O)[C@H](CC(=O)O)NC(=O)[C@H](CC(N)=O)NC(=O)[C@@H](NC(=O)[C@H](Cc1ccc(O)cc1)NC(=O)[C@@H](NC(=O)CNC(=O)[C@H](CCC(=O)O)NC(=O)C(C)(C)NC(=O)[C@@H](N)Cc1c[nH]cn1)[C@@H](C)O)[C@@H](C)O)C(C)C)[C@@H](C)O)C(=O)N[C@@H](CCC(=O)O)C(=O)N[C@@H](Cc1c[nH]c2ccccc12)C(=O)N[C@@H](CC(C)C)C(=O)N[C@H](C(=O)N[C@@H](CCCCN)C(=O)N[C@@H](CS)C(=O)N[C@@H](CCCCN)C(=O)N1CCC[C@H]1C(=O)N[C@@H](CO)C(=O)N[C@@H](CO)C(=O)NCC(=O)N[C@@H](C)C(=O)N1CCC[C@H]1C(=O)N1CCC[C@H]1C(=O)N1CCC[C@H]1C(=O)N[C@@H](CO)C(N)=O)[C@@H](C)CC (HELM PEPTIDE1{H.[Aib].E.G.T.Y.T.N.D.V.T.E.Y.L.E.E.E.A.A.K.E.C.I.E.W.L.I.K.C.K.P.S.S.G.A.P.P.P.S.[am]}$$$$V2.0),0.16
8,CC[C@H](C)[C@H](NC(=O)[C@H](CC(C)C)NC(=O)[C@H](Cc1c[nH]c2ccccc12)NC(=O)[C@H](CCC(=O)O)NC(=O)[C@@H](NC(=O)[C@H](CS)NC(=O)[C@H](CCC(=O)O)NC(=O)[C@H](CCCCN)NC(=O)[C@H](C)NC(=O)[C@H](C)NC(=O)[C@H](CCC(=O)O)NC(=O)[C@H](CCC(=O)O)NC(=O)[C@H](CCC(=O)O)NC(=O)[C@H](CC(C)C)NC(=O)[C@H](Cc1ccc(O)cc1)NC(=O)[C@H](CCC(=O)O)NC(=O)[C@@H](NC(=O)[C@@H](NC(=O)[C@H](CC(=O)O)NC(=O)[C@H](CC(N)=O)NC(=O)[C@@H](NC(=O)[C@H](Cc1ccc(O)cc1)NC(=O)[C@@H](NC(=O)CNC(=O)[C@H](CCC(=O)O)NC(=O)C(C)(C)NC(=O)[C@@H](N)Cc1c[nH]cn1)[C@@H](C)O)[C@@H](C)O)C(C)C)[C@@H](C)O)[C@@H](C)CC)C(=O)N[C@@H](CCCCN)C(=O)N[C@@H](CS)C(=O)N[C@@H](CCCCN)C(N)=O (HELM PEPTIDE1{H.[Aib].E.G.T.Y.T.N.D.V.T.E.Y.L.E.E.E.A.A.K.E.C.I.E.W.L.I.K.C.K.[am]}$$$$V2.0),0.45
